Reference: patent US9249151B2, “Bis-amido pyridines” (Boehringer Ingelheim International GmbH, priority 2013, dated 2016)

Biological target: BIR3 domain of human cIAP1 (amino acids 256 to 363; cIAP1 BIR3) (Homo sapiens (Human), UniProt Q13490)
Experiment: cIAP1 BIR3 binding assay (DELFIA)
Method: XIAP BIR3 and cIAP1 BIR3 Binding Assays (DELFIA)
Peptide […]-Lys(Biotin), representing the N-terminus of mature human SMAC (SMAC peptide), was used as interaction partner in the protein-peptide interaction assay.
BIR3 domains (10 nM) were incubated with SMAC peptide (10 nM) in assay buffer (50 mM Tris, 120 mM NaCl, 0.1% BSA, 1 mM DTT, 0.05% TritonX100) for one hour at room temperature in the presence of inhibitory compounds. The assay mixture was transferred to a streptavidin coated plate and incubated for one hour at room temperature to allow binding of the biotinylated peptide and associated BIR3 domains to the plate. After several washing steps Eu labeled anti-GST antibody (e.g. Perkin Elmer DELFIA Eu-N1-antiGST AD0250) was added to detect BIR3 domain-SMAC peptide interactions m according to Perkin Elmer's instructions. […] Time resolved Europium fluoresecence was measured in a Wallac Victor using Standard assay settings.
DELFIA assay results were plotted against compound concentrations and Software GraphPad Prizm was used to calculate half maximal inhibitory concentrations (IC50 values).

BIR3 domain of human cIAP1 (amino acids 256 to 363; cIAP1 BIR3), sequence (Q13490 256-363): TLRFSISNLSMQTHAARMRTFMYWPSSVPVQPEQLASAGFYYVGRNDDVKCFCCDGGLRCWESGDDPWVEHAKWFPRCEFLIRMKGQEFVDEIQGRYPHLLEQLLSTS

## CNC(C)C(=O)Nc1cc(-c2nc(C)nc3c(C)nn(C)c23)cc(NC(=O)c2ncc(Cl)cc2C)n1 (stereo not shown) [Example 60, 5-chloro-3-methyl-N-{6-[2-(methylamino)propanamido]-4-{trimethyl-1H-pyrazolo-[4,3-d]pyrimidin-7-yl}-pyridin-2-yl}pyridine-2-carboxamide]
  IC50: 0.034 µM
